From PubChem BioAssay AID1918933 (Molecular Pharmacology Branch, DTP, NCI, 2023)

Test system: 186277-243-T-J2-PDC complex spheroid viability
Experiment: Anticancer human tumor 186277-243-T-J2-PDC patient-derived colon adenocarcinoma cell line growth inhibition
Settings: for IC50: curve of first compound; for viability, T/C: stronger effect = lower value; active = viability on the fitted dose curve at most 10% of control; inactive = the rest
In short: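 Complex spheroids of tumor cells with HUVEC and human MSCs, exposed to iadademstat combined with other agents. Each agent tested in half-log steps from near clinical Cmax (else 10 microM top), DMSO ≤0.25%.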

[1] = second compound 0.1 µM, first compound 0.0316 µM
[2] = second compound 0.1 µM, first compound 0.1 µM
[3] = second compound 0.316 µM, first compound 0.0316 µM
[4] = second compound 0.316 µM, first compound 0.1 µM
[5] = second compound 1 µM, first compound 0.0316 µM
[6] = second compound 1 µM, first compound 0.1 µM
[7] = second compound 3.16 µM, first compound 0.0316 µM
[8] = second compound 3.16 µM, first compound 0.1 µM
[9] = second compound 10 µM, first compound 0.0316 µM
[10] = second compound 10 µM, first compound 0.1 µM
[11] = second compound 0.1 µM, first compound 0.00949 µM
[12] = second compound 0.1 µM, first compound 0.03 µM
[13] = second compound 0.1 µM, first compound 0.0949 µM
[14] = second compound 0.1 µM, first compound 0.3 µM
[15] = second compound 0.1 µM, first compound 0.949 µM
[16] = second compound 0.1 µM, first compound 3 µM
[17] = second compound 0.316 µM, first compound 0.00949 µM
[18] = second compound 0.316 µM, first compound 0.03 µM
[19] = second compound 0.316 µM, first compound 0.0949 µM
[20] = second compound 0.316 µM, first compound 0.3 µM
[21] = second compound 0.316 µM, first compound 0.949 µM
[22] = second compound 0.316 µM, first compound 3 µM
[23] = second compound 1 µM, first compound 0.00949 µM
[24] = second compound 1 µM, first compound 0.03 µM
[25] = second compound 1 µM, first compound 0.0949 µM
[26] = second compound 1 µM, first compound 0.3 µM
[27] = second compound 1 µM, first compound 0.949 µM
[28] = second compound 1 µM, first compound 3 µM
[29] = second compound 3.16 µM, first compound 0.00949 µM
[30] = second compound 3.16 µM, first compound 0.03 µM
[31] = second compound 3.16 µM, first compound 0.0949 µM
[32] = second compound 3.16 µM, first compound 0.3 µM
[33] = second compound 3.16 µM, first compound 0.949 µM
[34] = second compound 3.16 µM, first compound 3 µM
[35] = second compound 10 µM, first compound 0.00949 µM
[36] = second compound 10 µM, first compound 0.03 µM
[37] = second compound 10 µM, first compound 0.0949 µM
[38] = second compound 10 µM, first compound 0.3 µM
[39] = second compound 10 µM, first compound 0.949 µM
[40] = second compound 10 µM, first compound 3 µM
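Note: 7 day exposure to compounds.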
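Throughout, for viability, T/C: 100% = DMSO vehicle control viability.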

CC1(C)CCC(CN2CCN(c3ccc(C(=O)NS(=O)(=O)c4ccc(NCC5CCOCC5)c([N+](=O)[O-])c4)c(Oc4cnc5[nH]ccc5c4)c3)CC2)=C(c2ccc(Cl)cc2)C1 + NC1CCC(NC2CC2c2ccccc2)CC1
4910 nM: IC50 (second compound 0.1 µM)
active: viability, T/C (second compound 3.16 µM, first compound 10 µM) 8.73% | viability, T/C (second compound 10 µM, first compound 10 µM) 9.39%
inactive: viability, T/C [1] 92% | viability, T/C [2] 114% | viability, T/C (second compound 0.1 µM, first compound 0.316 µM) 101% | viability, T/C (second compound 0.1 µM, first compound 1 µM) 97.7% | viability, T/C (second compound 0.1 µM, first compound 3.16 µM) 73.5% | viability, T/C (second compound 0.1 µM, first compound 10 µM) 12% | viability, T/C [3] 106% | viability, T/C [4] 117% | viability, T/C (second compound 0.316 µM, first compound 0.316 µM) 99.4% | viability, T/C (second compound 0.316 µM, first compound 1 µM) 109% | viability, T/C (second compound 0.316 µM, first compound 3.16 µM) 74.9% | viability, T/C (second compound 0.316 µM, first compound 10 µM) 11.5% | viability, T/C [5] 100% | viability, T/C [6] 105% | viability, T/C (second compound 1 µM, first compound 0.316 µM) 106% | viability, T/C (second compound 1 µM, first compound 1 µM) 101% | viability, T/C (second compound 1 µM, first compound 3.16 µM) 77.9% | viability, T/C (second compound 1 µM, first compound 10 µM) 11.3% | viability, T/C [7] 107% | viability, T/C [8] 107% | viability, T/C (second compound 3.16 µM, first compound 0.316 µM) 115% | viability, T/C (second compound 3.16 µM, first compound 1 µM) 95.8% | viability, T/C (second compound 3.16 µM, first compound 3.16 µM) 79.2% | viability, T/C [9] 98.9% | viability, T/C [10] 107% | viability, T/C (second compound 10 µM, first compound 0.316 µM) 96.6% | viability, T/C (second compound 10 µM, first compound 1 µM) 97.6% | viability, T/C (second compound 10 µM, first compound 3.16 µM) 69.1%
5040 nM: IC50 (second compound 3.16 µM)
4570 nM: IC50 (second compound 10 µM)
5120 nM: IC50 (second compound 1 µM)
4970 nM: IC50 (second compound 0.316 µM)

CCN(c1cc(-c2ccc(CN3CCOCC3)cc2)cc(C(=O)NCc2c(C)cc(C)[nH]c2=O)c1C)C1CCOCC1 + NC1CCC(NC2CC2c2ccccc2)CC1
> 3000 nM: IC50 (second compound 0.1 µM) | IC50 (second compound 0.316 µM) | IC50 (second compound 1 µM) | IC50 (second compound 3.16 µM) | IC50 (second compound 10 µM)
inactive: viability, T/C [11] 108% | viability, T/C [12] 94% | viability, T/C [13] 108% | viability, T/C [14] 116% | viability, T/C [15] 105% | viability, T/C [16] 110% | viability, T/C [17] 112% | viability, T/C [18] 102% | viability, T/C [19] 110% | viability, T/C [20] 112% | viability, T/C [21] 113% | viability, T/C [22] 113% | viability, T/C [23] 122% | viability, T/C [24] 121% | viability, T/C [25] 108% | viability, T/C [26] 111% | viability, T/C [27] 111% | viability, T/C [28] 102% | viability, T/C [29] 110% | viability, T/C [30] 115% | viability, T/C [31] 107% | viability, T/C [32] 117% | viability, T/C [33] 121% | viability, T/C [34] 111% | viability, T/C [35] 105% | viability, T/C [36] 94.8% | viability, T/C [37] 95.9% | viability, T/C [38] 107% | viability, T/C [39] 109% | viability, T/C [40] 98.3%

Cn1ncnc1C1c2n[nH]c(=O)c3cc(F)cc(c23)NC1c1ccc(F)cc1 (stereo not given) + NC1CCC(NC2CC2c2ccccc2)CC1
inactive: viability, T/C (second compound 0.1 µM, first compound 0.000316 µM) 109% | viability, T/C (second compound 0.1 µM, first compound 0.001 µM) 105% | viability, T/C (second compound 0.1 µM, first compound 0.00316 µM) 111% | viability, T/C (second compound 0.1 µM, first compound 0.01 µM) 107% | viability, T/C [1] 109% | viability, T/C [2] 104% | viability, T/C (second compound 0.316 µM, first compound 0.000316 µM) 113% | viability, T/C (second compound 0.316 µM, first compound 0.001 µM) 107% | viability, T/C (second compound 0.316 µM, first compound 0.00316 µM) 109% | viability, T/C (second compound 0.316 µM, first compound 0.01 µM) 108% | viability, T/C [3] 103% | viability, T/C [4] 96.8% | viability, T/C (second compound 1 µM, first compound 0.000316 µM) 111% | viability, T/C (second compound 1 µM, first compound 0.001 µM) 107% | viability, T/C (second compound 1 µM, first compound 0.00316 µM) 110% | viability, T/C (second compound 1 µM, first compound 0.01 µM) 107% | viability, T/C [5] 99.6% | viability, T/C [6] 97.8% | viability, T/C (second compound 3.16 µM, first compound 0.000316 µM) 109% | viability, T/C (second compound 3.16 µM, first compound 0.001 µM) 99% | viability, T/C (second compound 3.16 µM, first compound 0.00316 µM) 109% | viability, T/C (second compound 3.16 µM, first compound 0.01 µM) 103% | viability, T/C [7] 99.3% | viability, T/C [8] 104% | viability, T/C (second compound 10 µM, first compound 0.000316 µM) 107% | viability, T/C (second compound 10 µM, first compound 0.001 µM) 113% | viability, T/C (second compound 10 µM, first compound 0.00316 µM) 102% | viability, T/C (second compound 10 µM, first compound 0.01 µM) 104% | viability, T/C [9] 96% | viability, T/C [10] 108%
> 100 nM: IC50 (second compound 0.1 µM) | IC50 (second compound 0.316 µM) | IC50 (second compound 1 µM) | IC50 (second compound 3.16 µM) | IC50 (second compound 10 µM)

NS(=O)(=O)OCC1CC(n2ccc3c(NC4CCc5ccccc54)ncnc32)CC1O (stereo not given) + NC1CCC(NC2CC2c2ccccc2)CC1
518 nM: IC50 (second compound 1 µM)
521 nM: IC50 (second compound 0.1 µM)
907 nM: IC50 (second compound 10 µM)
inactive: viability, T/C [11] 113% | viability, T/C [12] 96.2% | viability, T/C [13] 85.8% | viability, T/C [14] 65.8% | viability, T/C [15] 33.2% | viability, T/C [17] 126% | viability, T/C [18] 112% | viability, T/C [19] 97.3% | viability, T/C [20] 63% | viability, T/C [21] 29.6% | viability, T/C [22] 12.1% | viability, T/C [23] 121% | viability, T/C [24] 103% | viability, T/C [25] 103% | viability, T/C [26] 58.1% | viability, T/C [27] 38.1% | viability, T/C [28] 15.6% | viability, T/C [29] 113% | viability, T/C [30] 113% | viability, T/C [31] 97.3% | viability, T/C [32] 71.2% | viability, T/C [33] 42.5% | viability, T/C [34] 14% | viability, T/C [35] 112% | viability, T/C [36] 102% | viability, T/C [37] 92.8% | viability, T/C [38] 73% | viability, T/C [39] 49.8% | viability, T/C [40] 15.1%
active: viability, T/C [16] 9.95%
686 nM: IC50 (second compound 3.16 µM)
474 nM: IC50 (second compound 0.316 µM)

Nc1ncn(C2CC(O)C(CO)S2)c(=O)n1 (stereo not given) + NC1CCC(NC2CC2c2ccccc2)CC1
89 nM: IC50 (second compound 10 µM)
72.4 nM: IC50 (second compound 1 µM)
inactive: viability, T/C (second compound 0.1 µM, first compound 0.000949 µM) 125% | viability, T/C (second compound 0.1 µM, first compound 0.003 µM) 126% | viability, T/C [11] 132% | viability, T/C [12] 107% | viability, T/C [13] 38.1% | viability, T/C (second compound 0.316 µM, first compound 0.000949 µM) 108% | viability, T/C (second compound 0.316 µM, first compound 0.003 µM) 129% | viability, T/C [17] 123% | viability, T/C [18] 105% | viability, T/C [19] 34.9% | viability, T/C [20] 10.6% | viability, T/C (second compound 1 µM, first compound 0.000949 µM) 115% | viability, T/C (second compound 1 µM, first compound 0.003 µM) 125% | viability, T/C [23] 146% | viability, T/C [24] 90% | viability, T/C [25] 40.3% | viability, T/C [26] 11.5% | viability, T/C (second compound 3.16 µM, first compound 0.000949 µM) 119% | viability, T/C (second compound 3.16 µM, first compound 0.003 µM) 132% | viability, T/C [29] 140% | viability, T/C [30] 109% | viability, T/C [31] 35.7% | viability, T/C [32] 12.7% | viability, T/C (second compound 10 µM, first compound 0.000949 µM) 118% | viability, T/C (second compound 10 µM, first compound 0.003 µM) 125% | viability, T/C [35] 144% | viability, T/C [36] 112% | viability, T/C [37] 46.9% | viability, T/C [38] 13.3%
77.6 nM: IC50 (second compound 0.1 µM)
75.3 nM: IC50 (second compound 3.16 µM)
74 nM: IC50 (second compound 0.316 µM)
active: viability, T/C [14] 9.48%
